According to paper PMC7824787, “Design, Synthesis and In Vitro Investigation of Novel Basic Celastrol Carboxamides as Bio-Inspired Leishmanicidal Agents Endowed with Inhibitory Activity against Leishmania Hsp90” (Biomolecules, 2021):

Legend:
L. infantum amastigotes = assay: Antileishmanial activity on intramacrophage amastigotes of L. infantum; assay type: cell-based, Leishmania infantum; settings: Leishmania infantum; infected THP-1 macrophages, 72 h
Description: Cell monolayers were then washed and incubated in the presence of test compounds for 72 h. Slides were fixed with methanol and stained with Giemsa. The percentage of infected macrophages in treated and non-treated cells was determined by light microscopy.

LbHsp90 [1] = target: T1, LbHsp90 (Leishmania braziliensis, UniProt A4HL70); assay: In vitro inhibition of the ATPase activity of LbHsp90 (Malachite Green Phosphate Assay); assay type: biochemical; settings: 7 μM LbHsp90, 27 °C, 60 min
Excerpt: To evaluate in vitro the modulatory activity of CE, PR and CE caboxamides, a full-length recombinant Hsp90 from L. braziliensis (LbHsp90) was produced in E. coli BL21 DE3 harboring the pET28a_LbHsp90 coding for the C-terminal His-tagged target chaperone (genbank number: XP_001567804.1, full sequence is reported in Appendix B). Pratically, the plasmid pET28a_LbHsp90, kindly donated by professor J.C. Borges, was transformed in E. coli BL21 DE3 using the TransformAid Bacterial Transformation Kit (Thermo Fisher, Waltham, MA, USA). Subsequently, the obtained transformants were grown overnight in LB medium containing 30 μg mL^−1 kanamycin (LBkan30) and then inoculated in 1 L SB kan30 medium (Yeast extract 30 g L^−1, Tryptone 20 g L^−1, NaCl 10 g L^−1) at 37 °C and 220 rpm. When the OD600 reached 0.5–1, gene expression was induced by the addition of 2 mL of 1 M IPTG solution in water and the culture was shifted at 30 °C for 24 h. After cell harvesting by centrifugation (5000 rpm for 30 min), the cell pellet was resuspended in 20 mL of wash buffer (20 mM HEPES buffer, pH 7.0, 500 mM NaCl, 20 mM imidazole) and recombinant E. coli BL21DE3 cells were disrupted by ultrasonication. LbHsp90 was subsequently purified using a Nickel Sepharose 6 Fast Flow agarose resin (Ni-NTA) (GE Healthcare, Milan, Italy) as follows. Soluble protein fraction was separated from cell debris by centrifugation (10,000 rpm for 30min) after cell ultrasonication, and clear lysates were incubated with the Ni-NTA resin for 90 min at 4 °C under mild shaking and loaded onto a glass column (10 × 110 mm). The resin was then washed with 10mL of wash buffer and His-tagged LbHsp90 was eluted using a 3 step gradient (10 mL washing buffer containing 100, 200, and 300 mM imidazole, respectively) and dialyzed against 20 mM HEPES buffer (20 mM, pH 7.5), at 4 °C overnight. The protein content was measured using the Bio-Rad Protein Assay (Hercules, CA, USA) according to the Bradford method and the protein purity was verified by SDS-PAGE analysis (10% T, 2.6% C). It is worth noting that to avoid interferences with the assays described below, proteins were purified and conserved in HEPES buffer (20 mM, pH 7.5) in place of the standard PB-buffer. Reported data are the mean of two experiments run in duplicate.
Modulatory activity toward the ATPase cycle of LbHsp90 was determined using a Malachite Green Phosphate Assay Kit (Catalog Number MAK307, Sigma-Aldrich®, St. Louis, MO, USA). Analyses were run in a 96-well plate directly following the quantitative formation of a green complex between Malachite Green, molybdate, and free orthophosphate (Pi) produced by ATP hydrolysis catalyzed by the chaperone. Color formation from the reaction was measured on a plate reader at 620 nm. Briefly, the IC50 of CE and its derivatives were extrapolated from a set of dose-response curves obtained by calculating the amount of Pi produced by LbHsp90 in the presence of different compounds concentrations.
Reactions were run in HEPES buffer (20 mM, pH 7.5) containing 3 mM MgCl2 and 50 mM KCl in the presence of different compounds concentrations ([…]), LbHsp90 (7 μM) and ATP (25 mM) at 27 °C for 60 min. OD620 was measured 30 min after Malachite Green reactants addition.
LbHsp90 native activity was measured by conducting the reaction in the presence of just LbHsp90 and ATP and extrapolating the concentration of Pi obtained.
Three sets of control experiments, (1) ATP background hydrolysis, (2) compounds-related interferences and (3) protein-related background coloration, were run as follow: • (1) ATP (25 mM) incubated at 27 °C for 60 min • (2) Compounds (different concentrations) incubated with ATP (25 mM) at 27 °C for 60 min • (3) LbHsp90 (7 μM) at 27 °C for 60 min
The in vitro performances of CE, PR and the carboxamides 1–11 (Figure 4) as potential inhibitors of the Leishmania braziliensis Hsp90 were investigated using Sigma-Aldrich® Malachite Green Phosphate Assay Kit. […]

LbHsp90 [2] = target: T1, LbHsp90; assay: LbHsp90 ATPase kinetics (NADH-coupled enzymatic cascade); assay type: biochemical; settings: for LbHsp90 Inhibition (%): compound 50 μM, 3.5 μM LbHsp90, 1 mM ATP; for inhibition at 50 µM: read-out: LbHsp90 Inhibition (%), compound 50 μM, 3.5 μM LbHsp90, 1 mM ATP
Description: The reaction was initiated by the addition of ATP (1 mM) and absorbance changes at 346 nm were monitored for 30 min at 30 °C.
Native LbHsp90 kinetics was measured as described but in the absence of DMSO. Two control experiments were run as follows: • (1) Efficiency of the enzymatic cascade by the used compounds: HEPES buffer (20 mM, pH 7.5) containing KCl (100 mM), MgCl2 (1 mM), ADP (1 mM), NADH (0.18 mM), L-lactate dehydrogenase (4 U mL^−1), phosphoenolpyruvate (1 mM), pyruvate kinase (2.5 U mL^−1); • (2) Interference of the tested compound(s) with the enzymatic cascade: HEPES buffer (20 mM, pH 7.5) containing KCl (100 mM), MgCl2 (1 mM), ADP (1 mM), NADH (0.18 mM), L-lactate dehydrogenase (4 U mL^−1), phosphoenolpyruvate (1 mM), pyruvate kinase (2.5 U mL^−1) and 50 μM compound.
Accordingly, an in vitro assay developed for the evaluation of non-competitive allosteric modulators, which exploits ATPase kinetics data, was used. Briefly, the decrease in absorbance deriving from the continuous oxidation of NADH to NAD^+ produced by a multi-enzymatic cascade triggered by LbHp90-catalyzed ATP hydrolysis is followed spectrophotometrically over the course of 15 min (for details see Appendix B). All the experiments were normalized using the native ATPase activity of LbHsp90 measured in the presence of DMSO, the co-solvent selected for compounds solubilization.
Figure A1 Enzymatic cascade reactions to spectroscopically evaluate L. Hsp90 ATPase kinetics. The ADP produced by ATP hydrolysis during the chaperone cycle reacts with PEP (phosphoenolpyruvate) to form pyruvate in a reaction catalyzed by the enzyme pyruvate kinase (PK), whereby ATP is regenerated. Pyruvate then continues the cascade process and is reduced to lactic acid by action of lactate dehydrogenase (LDH), whereby NADH is oxidized to NAD^+.
LbHsp90 inhibition (%) = (1 − k/knative) * 100 k = ΔAbs/min = extrapolated apparent kinetic constant (Abs/min)

T1 sequence (A4HL70 entry or part of it): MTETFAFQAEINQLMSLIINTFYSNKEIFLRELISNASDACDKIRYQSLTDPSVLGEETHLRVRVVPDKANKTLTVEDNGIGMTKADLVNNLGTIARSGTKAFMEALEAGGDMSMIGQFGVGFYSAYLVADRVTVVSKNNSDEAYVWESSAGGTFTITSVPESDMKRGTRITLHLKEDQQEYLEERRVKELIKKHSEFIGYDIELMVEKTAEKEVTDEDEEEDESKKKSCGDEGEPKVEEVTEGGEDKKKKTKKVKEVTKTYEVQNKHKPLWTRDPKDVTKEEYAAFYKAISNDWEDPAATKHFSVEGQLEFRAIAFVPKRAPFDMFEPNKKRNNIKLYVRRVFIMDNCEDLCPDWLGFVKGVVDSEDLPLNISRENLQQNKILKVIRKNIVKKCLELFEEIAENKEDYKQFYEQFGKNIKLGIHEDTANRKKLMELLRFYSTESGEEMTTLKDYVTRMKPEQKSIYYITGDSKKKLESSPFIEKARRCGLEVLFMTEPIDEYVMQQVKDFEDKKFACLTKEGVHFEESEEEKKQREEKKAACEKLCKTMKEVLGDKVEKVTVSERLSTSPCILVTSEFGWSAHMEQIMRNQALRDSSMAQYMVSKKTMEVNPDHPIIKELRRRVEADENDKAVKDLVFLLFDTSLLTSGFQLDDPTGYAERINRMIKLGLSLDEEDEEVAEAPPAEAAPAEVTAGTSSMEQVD

CC1=C(O)C(=O)C=C2C1=CC=C1[C@@]2(C)CC[C@@]2(C)[C@@H]3C[C@](C)(C(=O)NCC45CCCN4CCC5)CC[C@]3(C)CC[C@]12C [compound 5, (2R,4aS,6aS,12bR,14aS,14bR)-N-((hexahydro-1H-pyrrolizin-7a-yl)methyl)-10-hydroxy-2,4a,6a,9,12b,14a-hexamethyl-11-oxo-1,2,3,4,4a,5,6,6a,11,12b,13,14,14a,14b-tetradecahydropicene-2-carboxamide]
IC50 (L. infantum amastigotes): 0.52 ± 0.28 µM
melting point: 250.8 to 254.7 °C
IC50 (LbHsp90 [1]): 20 ± 2 µM

CC1=C(O)C(=O)C=C2C1=CC=C1[C@@]2(C)CC[C@@]2(C)[C@@H]3C[C@](C)(C(=O)NCCSS(C)(=O)=O)CC[C@]3(C)CC[C@]12C [compound 9, S-(2-((2R,4aS,6aS,12bR,14aS,14bR)-10-hydroxy-2,4a,6a,9,12b,14a-hexamethyl-11-oxo-1,2,3,4,4a,5,6,6a,11,12b,13,14,14a,14b-tetradecahydropicene-2-carboxamido)ethyl) methanesulfonothioate]
IC50 (LbHsp90 [1]): > 150 µM

CC1=C(O)C(=O)C=C2C1=CC=C1[C@@]2(C)CC[C@@]2(C)[C@@H]3C[C@](C)(C(=O)NCCNc4ccnc5cc(Cl)ccc45)CC[C@]3(C)CC[C@]12C [compound 6, (2R,4aS,6aS,12bR,14aS,14bR)-N-(2-((7-chloroquinolin-4-yl)amino)ethyl)-10-hydroxy-2,4a,6a,9,12b,14a-hexamethyl-11-oxo-1,2,3,4,4a,5,6,6a,11,12b,13,14,14a,14b-tetradecahydropicene-2-carboxamide]
IC50 (L. infantum amastigotes): 0.66 ± 0.06 µM
melting point: 165.7 to 167.9 °C
IC50 (LbHsp90 [1]): 65 ± 4 µM

CC1=C(O)C(=O)C=C2C1=CC=C1[C@@]2(C)CC[C@@]2(C)[C@@H]3C[C@](C)(C(=O)O)CC[C@]3(C)CC[C@]12C [CE, celastrol]
LbHsp90 Inhibition (%) (LbHsp90 [2]): 28.9 ± 5.4%
inhibition at 50 µM (LbHsp90 [2]): 30%
IC50 (LbHsp90 [1]): 201 ± 10 µM

CC1=C(O)C(=O)C=C2C1=CC=C1[C@@]2(C)CC[C@@]2(C)[C@@H]3C[C@](C)(C(=O)NCCN4CCCC4)CC[C@]3(C)CC[C@]12C [compound 3, (2R,4aS,6aS,12bR,14aS,14bR)-10-hydroxy-2,4a,6a,9,12b,14a-hexamethyl-11-oxo-N-(2-(pyrrolidin-1-yl)ethyl)-1,2,3,4,4a,5,6,6a,11,12b,13,14,14a,14b-tetradecahydropicene-2-carboxamide]
IC50 (L. infantum amastigotes): 0.13 ± 0.09 µM
melting point: 135.6 to 138 °C
LbHsp90 Inhibition (%) (LbHsp90 [2]): 97.8 ± 1.2%
inhibition at 50 µM (LbHsp90 [2]): 95%
IC50 (LbHsp90 [1]): 81 ± 1 µM

CC1=C(O)C(=O)C=C2C1=CC=C1[C@@]2(C)CC[C@@]2(C)[C@@H]3C[C@](C)(C(=O)NCCN4CCCCC4)CC[C@]3(C)CC[C@]12C [compound 1, (2R,4aS,6aS,12bR,14aS,14bR)-10-hydroxy-2,4a,6a,9,12b,14a-hexamethyl-11-oxo-N-(2-(piperidin-1-yl)ethyl)-1,2,3,4,4a,5,6,6a,11,12b,13,14,14a,14b-tetradecahydropicene-2-carboxamide]
IC50 (L. infantum amastigotes): 0.19 ± 0.11 µM
melting point: 137 to 138.6 °C
IC50 (LbHsp90 [1]): 83 ± 2 µM
